Laboratory results taken from US20260240845A1, “METHODS FOR TREATING OR PREVENTING CORONAVIRUS INFECTION SKELETAL SEQUELAE” (priority 2023, published 2026).
Entries after “also recorded” stand apart in the source; their conditions may differ.

How the values were obtained:
[1] = tested on: SARS-COV-2-infected hamsters; design: species or system golden Syrian hamsters (Mesocricetus auratus); conditions: hamster, in vivo
[2] = tested on: SARS-COV-2-infected hamsters; design: species or system golden Syrian hamsters (Mesocricetus auratus); conditions: hamster, in vivo; remark: listed apart in the source
[3] = tested on: C28/12; assay: Rescue effect of macitentan on SP RBD-induced oxidative stress and mitochondrial dynamics in chondrocytes (CellROX, MitoTracker); format: cell-based, human; conditions: C28/12 pre-treated with 10 μM Macitentan for 30 minutes, then SP RBD 10 μg/ml for 1 h
Method: Chondrocyte cell lines C28/12 (human), ATDC5 (mouse) and human umbilical vein endothelial cells (HUVEC) were received as gifts from Prof. Danny Chan from the University of Hong Kong, Prof. Limin Rong from Sun Yat-Sen University and Prof.
Mo Yang from the Hong Kong Polytechnic University respectively. Both chondrocyte cell lines were maintained in DMEM/F12 culture medium supplemented with 5% heat-inactivated FBS, 50 U ml^−1 penicillin and 50 μg ml-^1 streptomycin. HUVEC were cultured in endothelial cell medium with 1% endothelial cell growth supplement and 1% antibiotic solution (ScienCell).
To investigate the rescue effect of Macitentan on RBD-induced oxidative stress accumulation and change in mitochondrial dynamics, cells seeded on coverslips were pre-treated with 10 μM Macitentan for 30 minutes before adding RBD for an hour.
To evaluate cellular oxidative stress, CellROX® Deep Red Reagent solution (Invitrogen) was used according to the manufacturer's instructions. Positive signal was visualized by excitation/emission at 640/665 nm. For visualising mitochondrial morphology, we stained the cells using Mito Tracker® Red CMXRos (Invitrogen) with excitation/emission at 579/599 nm. Cells were then counterstained and mounted by ProLong® Gold antifade reagent with 4′, 6-diamidino-2-phenylindole (DAPI). All the images were captured using Leica TCS SPE Confocal microscope.

[4] = tested on: mice injected with SP RBD; design: species or system Balb/c mice; conditions: mouse, in vivo

Compound: CCCNS(=O)(=O)Nc1ncnc(OCCOc2ncc(Br)cn2)c1-c1ccc(Br)cc1 [macitentan]
- 4HNE expression level in bone marrow cavity of subchondral bone (oxidative stress) [1]: lowered vWF and 4HNE expression level
- BV/TV (micro-CT) [1]: no significant difference
- amount of viral spike protein at local joint tissue (subchondral bone marrow cavity) [1]: tended to lower the amount of viral spike protein
- area of the cysts at the osteochondral junction [1]: effectively reducing the area of the cysts
- articular surface roughness [1]: No statistical significance
- collagen loss (Masson's trichrome staining) [1]: prevented virus-induced collagen loss
- fibrin exudate at the osteochondral junction [1]: decreasing the fibrin exudate
- number of SP7+ osteoblasts progenitors [1]: without affecting the number of SP7^+ osteoblasts progenitors
- number of TRAP+ osteoclasts in subchondral bone [1]: significantly lower number of TRAP^+ osteoclasts
- number of chondrocytes in articular cartilage [1]: More chondrocytes were observed
- number of cytoplasmic HMGB1 cells in articular cartilage [1]: decrease in the number of nuclear p16^INK4a and cytoplasmic HMGB1 cells
- number of nuclear p16INK4a cells in articular cartilage [1]: decrease in the number of nuclear p16^INK4a
- subchondral BMD (micro-CT) [1]: could restore subchondral BMD
- vWF expression level in bone marrow cavity of subchondral bone [1]: lowered vWF and 4HNE expression level
- BMD in tibial epiphysis (micro-CT) [2]: improvement in subchondral bone mass and microstructure; also recorded: significant increase in BMD and BV/TV
- BV/TV in tibial epiphysis (micro-CT) [2]: improvement in subchondral bone mass and microstructure; also recorded: significant increase in BMD and BV/TV
- amount of viral spike protein retained (subchondral bone marrow cavity) [2]: could reduce the amount of viral spike protein retained
- articular cartilage structure [2]: did not lead to further improvement in articular cartilage structurally
- chondrocyte dropout [2]: slight yet not significant improvement
- cyst formation [2]: slight yet not significant improvement
- expression level of vWF in bone marrow [2]: could effectively lower the expression level of vWF
- number of SP7+ osteoblast progenitors [2]: increased the number of SP7^+ osteoblast progenitors
- number of TRAP+ osteoclasts [2]: without affecting the number of TRAP^+ osteoclasts
- number of senescent chondrocytes in articular cartilage (p16INK4a and HMGB1 staining) [2]: effectively lower the number of senescent chondrocytes
- oxidative stress near vessels (4HNE staining) [2]: reduction of oxidative stress near vessels
- trabecular number in tibial epiphysis (micro-CT) [2]: improvement in subchondral bone mass and microstructure
- trabecular separation in tibial epiphysis (micro-CT) [2]: improvement in subchondral bone mass and microstructure
- trabecular thickness in tibial epiphysis (micro-CT) [2]: improvement in subchondral bone mass and microstructure
- SP RBD-induced cellular oxidative stress (CellROX staining) [3]: effectively lowered SARS-COV-2 spike protein-induced increase in oxidative stress
- mitochondrial dynamics / morphology (MitoTracker staining) [3]: showed restoration of rod-like structures
- SP RBD-induced subchondral bone loss (micro-CT, proximal epiphysis of tibia) [4]: rescue effect of macitentan on SP RBD-induced bone loss
- accumulation of senescent chondrocytes (p16INK4a, HMGB1) in articular cartilage [4]: preventing accumulation of senescent chondrocytes
- proteoglycan in articular cartilage (Safranin O/fast green) [4]: performed better in terms of preserving proteoglycan
- paw withdrawal threshold / nociceptive tolerance (von Frey filament test) ([4]; ip, 0.3 mg/kg): able to attain the same nociceptive tolerance as high dose after 12 days
- paw withdrawal threshold (von Frey filament test) ([4]; ip, 3 mg/kg): increase in paw withdrawal threshold after 5 days of treatment; also recorded: faster analgesic effect at the higher dose
